# pIC50: −log10 of the molar value. Structures can show the parent of a compound that is named as a salt.
# Molecular target: human PDE10A (UniProt Q9Y233)
# Assay: Measurement of PDE activity (recombinant enzyme, HTRF cAMP kit)
# Type: biochemical
# Settings: Table 1, substrate 20 nM for PDE10, 60 minutes at 29 C
# How it was run: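 Recombinant human PDE10A (10–250 pM range across PDEs) with 20 nM cAMP substrate in 20 mM Tris-HCl pH 7.5, 10 mM MgCl2, 0.1% BSA, compound pre-mixed with enzyme. Ran 60 min at 29 °C. Remaining cAMP read by HTRF, converted to % of uninhibited activity, and IC50 fitted.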
# human PDE10A, sequence (Q9Y233 290-1055 limits assumed): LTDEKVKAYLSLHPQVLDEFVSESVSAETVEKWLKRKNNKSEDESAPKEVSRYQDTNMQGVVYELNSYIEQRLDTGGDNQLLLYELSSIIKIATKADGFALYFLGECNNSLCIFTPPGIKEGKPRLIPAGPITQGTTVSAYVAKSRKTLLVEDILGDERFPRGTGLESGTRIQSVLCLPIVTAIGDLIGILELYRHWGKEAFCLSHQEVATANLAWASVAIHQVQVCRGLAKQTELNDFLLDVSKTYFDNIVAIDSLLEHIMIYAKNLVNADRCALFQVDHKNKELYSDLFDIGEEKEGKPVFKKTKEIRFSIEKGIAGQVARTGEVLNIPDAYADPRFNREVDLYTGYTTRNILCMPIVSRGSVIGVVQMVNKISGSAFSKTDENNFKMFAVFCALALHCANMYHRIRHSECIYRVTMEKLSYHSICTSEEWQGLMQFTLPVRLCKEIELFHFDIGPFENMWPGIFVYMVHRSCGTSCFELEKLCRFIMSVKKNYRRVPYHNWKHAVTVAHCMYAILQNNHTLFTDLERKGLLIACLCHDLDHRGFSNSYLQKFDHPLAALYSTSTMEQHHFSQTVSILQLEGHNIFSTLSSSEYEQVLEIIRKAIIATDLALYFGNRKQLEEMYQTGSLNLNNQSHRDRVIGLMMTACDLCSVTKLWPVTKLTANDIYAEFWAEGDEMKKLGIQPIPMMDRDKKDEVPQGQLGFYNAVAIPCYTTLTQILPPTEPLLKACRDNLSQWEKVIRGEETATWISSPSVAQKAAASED
row,SMILES,pIC50
1,"O=c1c2c(N3C4CCC3COC4)cccc2ccn1C1CC1c1ccc2ccccc2n1 [Example 263, anti 8-((1R,5S)-3-oxa-8-azabicyclo[3.2.1]octan-8-yl)-2-(2-(quinolin-2-yl)cyclopropyl)isoquinolin-1(2H)-one]",> 7.00

# Same assay, conditions: Table 1, substrate 20 nM for PDE10, 60 minutes at 29 C, read-out: IC50
row,SMILES,pIC50
1,"O=c1c2c(-c3ccncc3)coc2ccn1CCc1cn2ccccc2n1 [Example 230, 5-(2-(Imidazo[1,2-a]pyridin-2-yl)ethyl)-3-(pyridin-4-yl)furo[3,2-c]pyridin-4(5H)-one hydrochloride]",6.70 to 7.00
2,"O=c1c2c(-c3cccnc3)cccc2ccn1C1CC1c1ccc2ccccc2n1 (stereo not drawn) [Example 239, anti 8-(pyridin-3-yl)-2-(2-(quinolin-2-yl)cyclopropyl)isoquinolin-1(2H)-one hydrochloride]",> 7.00
3,"O=c1c2c(N3CCC[C@H](O)C3)cccc2ccn1C1CC1c1ccc2ccccc2n1 (stereo partly drawn) [Example 244, anti 8-((3S)-3-hydroxypiperidin-1-yl)-2-(2-(quinolin-2-yl)cyclopropyl)isoquinolin-1(2H)-one (2E)-but-2-enedioate]",> 7.00
4,"O=c1c2c(N3CCOCC3)cccc2ccn1C1CC1c1ccc2ccccc2n1 (stereo not drawn) [Example 246, anti 8-morpholino-2-(2-(quinolin-2-yl)cyclopropyl)isoquinolin-1(2H)-one]",> 7.00
5,"O=c1c2c(N3CC[C@H](O)C3)cccc2ccn1C1CC1c1ccc2ccccc2n1 (stereo partly drawn) [Example 249, anti 8-((3S)-3-hydroxypyrrolidin-1-yl)-2-(2-(quinolin-2-yl)cyclopropyl)isoquinolin-1(2H)-one di[(2E)-but-2-enedioate]]",6.30 to 6.70
6,"O=c1c2c(N3CC[C@@H](O)C3)cccc2ccn1C1CC1c1ccc2ccccc2n1 (stereo partly drawn) [Example 250, anti 8-((3R)-3-hydroxypyrrolidin-1-yl)-2-(2-(quinolin-2-yl)cyclopropyl)isoquinolin-1(2H)-one (2E)-but-2-enedioate]",6.70 to 7.00
7,"O=c1c2c(-c3ccncc3)cccc2ccn1C1CC1c1ccc2ccccc2n1 (stereo not drawn) [Example 256, syn 8-(pyridin-4-yl)-2-(2-(quinolin-2-yl)cyclopropyl)isoquinolin-1(2H)-one hydrochloride]",> 7.00
8,"O=c1c2c(C3CCOCC3)cccc2ccn1C1CC1c1ccc2ccccc2n1 (stereo not drawn) [Example 257, anti 2-(2-(quinolin-2-yl)cyclopropyl)-8-(tetrahydro-2H-pyran-4-yl)isoquinolin-1(2H)-one]",> 7.00
9,"O=c1c2c(N3CCC(C(F)F)C3)cccc2ccn1C1CC1c1ccc2ccccc2n1 (stereo not drawn) [Example 262, anti 8-(3-(difluoromethyl)pyrrolidin-1-yl)-2-(2-(quinolin-2-yl)cyclopropyl)isoquinolin-1(2H)-one, trifluoroacetate]",6.70 to 7.00
10,"O=c1c2c(N3C[C@H]4CC[C@@H](C3)O4)cccc2ccn1C1CC1c1ccc2ccccc2n1 (stereo partly drawn) [Example 266, 8-((1R,5S)-8-oxa-3-azabicyclo[3.2.1]octan-3-yl)-2-(2-(quinolin-2-yl)cyclopropyl)isoquinolin-1(2H)-one]",> 7.00
11,"O=c1c2c(-c3ccoc3)cccc2ccn1C1CC1c1ccc2ccccc2n1 (stereo not drawn) [Example 268, anti 8-(furan-3-yl)-2-(2-(quinolin-2-yl)cyclopropyl)isoquinolin-1(2H)-one]",> 7.00
12,"O=c1c2c(C3=COCC3)cccc2ccn1C1CC1c1ccc2ccccc2n1 (stereo not drawn) [Example 269, anti 8-(4,5-dihydrofuran-3-yl)-2-(2-(quinolin-2-yl)cyclopropyl)isoquinolin-1(2H)-one]",> 7.00
13,O=c1c2c(-c3cccnc3)cccc2ccn1C1CC1c1ccc2cc(F)ccc2n1 (stereo not shown) [Example 272],> 7.00
14,"O=c1c2c(-c3ccncc3)cccc2c(F)cn1C1CC1c1ccc2ccccc2n1 (stereo not drawn) [Example 275, anti 4-fluoro-8-(pyridin-4-yl)-2-(2-(quinolin-2-yl)cyclopropyl)isoquinolin-1(2H)-one]",> 7.00
15,O=c1c2c(-c3cncnc3)csc2ccn1C1CC1c1ccc2ccccc2n1 (stereo not shown) [compound 282],> 7.00
16,O=c1c2c(-c3ccc(F)nc3)csc2ccn1C1CC1c1ccc2ccccc2n1 (stereo not shown) [compound 283],> 7.00
17,Cc1ncc(-c2csc3ccn(C4CC4c4ccc5ccccc5n4)c(=O)c23)cn1 (stereo not shown) [compound 284],> 7.00
18,O=c1c2c(N3CCOCC3)csc2ccn1C1CC1c1ccc2ccccc2n1 (stereo not shown) [compound 287],> 7.00
19,O=c1c2c(-c3cccnc3)csc2ccn1C1CC1c1ccc2sccc2n1 (stereo not shown) [compound 288],> 7.00
20,O=c1c2cccc(-c3cncnc3)c2ccn1C1CC1c1ccc2ccccc2n1 (stereo not shown) [compound 296],6.70 to 7.00
21,O=c1c2cccc(-c3ccncc3)c2ccn1C1CC1c1ccc2ccccc2n1 (stereo not shown) [compound 297],> 7.00
22,O=c1c2cccc(-c3cccnc3)c2ccn1C1CC1c1ccc2ccccc2n1 (stereo not shown) [compound 298],6.70 to 7.00
23,O=c1c2cccc(N3CCOCC3)c2ccn1C1CC1c1ccc2ccccc2n1 (stereo not shown) [compound 299],> 7.00

# Results, then the compound that gave them:
row,pIC50,SMILES
1,> 7.00,"O=c1c2c(-c3cncnc3)coc2ccn1CCc1ccc2ccccc2n1 [Example 231, 3-(Pyrimidin-5-yl)-5-(2-(quinolin-2-yl)ethyl)furo[3,2-c]pyridin-4(5H)-one]"
2,> 7.00,"C=C(Cn1ncc2nccc(-c3ccncc3)c2c1=O)c1ccc2ccccc2n1 [Example 234, 4-(Pyridin-4-yl)-6-(2-(quinolin-2-yl)allyl)pyrido[2,3-d]pyridazin-5(6H)-one]"
3,> 7.00,O=c1c2c(-c3ccncc3)cccc2ccn1C1CC1c1ccc2cc(F)ccc2n1 (stereo not shown) [Example 274]
4,> 7.00,"O=c1c2c(-c3ccncc3)cncc2cnn1CCc1ccc2ccccc2n1 [Example 301, 8-(pyridin-4-yl)-2-[2-(quinolin-2-yl)ethyl]pyrido[3,4-d]pyridazin-1(2H)-one]"
5,> 7.00,O=c1c2c(-c3ccncc3)csc2c(F)cn1C1CC1c1ccc2ccccc2n1 (stereo not shown) [compound 279]
6,> 7.00,O=c1c2c(-c3ccnc(F)c3)csc2ccn1C1CC1c1ccc2cc(F)ccc2n1 (stereo not shown) [compound 280]
7,> 7.00,O=c1c2c(-c3ccncc3)csc2ccn1C1CC1c1ccc2cc(F)ccc2n1 (stereo not shown) [compound 281]
8,> 7.00,O=c1c2c(-c3ccnnc3)csc2ccn1C1CC1c1ccc2ccccc2n1 (stereo not shown) [compound 285]
9,> 7.00,O=c1c2c(-c3cccnc3)csc2ccn1C1CC1c1ccc2ccccc2n1 (stereo not shown) [compound 289]
10,> 7.00,O=c1c2c(-c3cncnc3)csc2cnn1C1CC1c1ccc2ccccc2n1 (stereo not shown) [compound 290]
11,> 7.00,O=c1c2c(-c3ccncc3)csc2cnn1C1CC1c1ccc2sccc2n1 (stereo not shown) [compound 291]
12,> 7.00,O=c1c2c(-c3ccncc3)csc2ccn1C1CC1c1ccc2sccc2n1 (stereo not shown) [compound 292]
13,> 7.00,O=c1c2c(-c3ccncc3)csc2ccn1C1CC1c1ccc2ccccc2n1 (stereo not shown) [compound 293]
14,> 7.00,O=c1c2c(-c3ccncc3)csc2cnn1C1CC1c1ccc2ccccc2n1 (stereo not shown) [compound 295]
15,> 7.00,"Cn1cnc(-c2nn(CCc3cn4ccccc4n3)c(=O)c3c(-c4ccncc4)csc23)c1 [compound 302, 5-[2-(imidazo[1,2-a]pyridin-2-yl)ethyl]-7-(1-methyl-1H-imidazol-4-yl)-3-(pyridin-4-yl)thieno[2,3-d]pyridazin-4(5H)-one]"
16,> 7.00,"Cn1cc(-c2nn(CCc3cn4ccccc4n3)c(=O)c3c(-c4ccncc4)csc23)cn1 [compound 303, 5-[2-(imidazo[1,2-a]pyridin-2-yl)ethyl]-7-(1-methyl-1H-pyrazol-4-yl)-3-(pyridin-4-yl)thieno[2,3-d]pyridazin-4(5H)-one]"
17,> 7.00,"O=c1c2c(-c3ccncc3)csc2c(-c2cccnc2)nn1CCc1cn2ccccc2n1 [compound 304, 5-[2-(imidazo[1,2-a]pyridin-2-yl)ethyl]-7-(pyridin-3-yl)-3-(pyridin-4-yl)thieno[2,3-d]pyridazin-4(5H)-one]"
18,> 7.00,"Cc1cc2ccccc2nc1CCn1ccc2scc(-c3ccncc3)c2c1=O [compound 306, 5-[2-(3-methylquinolin-2-yl)ethyl]-3-(pyridin-4-yl)thieno[3,2-c]pyridin-4(5H)-one]"
19,6.30 to 6.70,"O=c1c2c(-c3ccncc3)csc2ccn1CCc1ccc2cccc(F)c2n1 [compound 307, 5-[2-(8-fluoroquinolin-2-yl)ethyl]-3-(pyridin-4-yl)thieno[3,2-c]pyridin-4(5H)-one]"
20,> 7.00,"O=c1c2c(-c3cccnc3)csc2ccn1CCc1ccc2cc(F)ccc2n1 [compound 308, hydrochloride]"
21,> 7.00,"O=c1c2c(-c3ccncc3)csc2ccn1CCc1ccc2cc(F)ccc2n1 [compound 309, 5-[2-(6-fluoroquinolin-2-yl)ethyl]-3-(pyridin-4-yl)thieno[3,2-c]pyridin-4(5H)-one]"
22,> 7.00,"O=c1c2c(-c3cccnc3)csc2ccn1CCc1cn2ccccc2n1 [compound 310, 5-[2-(imidazo[1,2-a]pyridin-2-yl)ethyl]-3-(pyridin-3-yl)thieno[3,2-c]pyridin-4(5H)-one]"
23,6.70 to 7.00,"O=c1c2c(-c3ccncc3)csc2cnn1CCc1cnc2ccccc2n1 [compound 311, hydrochloride]"
24,> 7.00,"O=c1c2c(-c3ccncc3)csc2cnn1CCc1ccc2ncccc2n1 [compound 312, 5-[2-(1,5-naphthyridin-2-yl)ethyl]-3-(pyridin-4-yl)thieno[2,3-d]pyridazin-4(5H)-one]"
25,> 7.00,"O=c1c2c(-c3cc[nH]n3)csc2cnn1CCc1ccc2ccccc2n1 [compound 315, 3-(1H-pyrazol-3-yl)-5-[2-(quinolin-2-yl)ethyl]thieno[2,3-d]pyridazin-4(5H)-one]"
26,> 7.00,"O=c1c2c(-c3ccncc3)csc2cnn1CCc1nc2ccccc2[nH]1 [compound 317, hydrochloride]"
27,6.30 to 6.70,"O=c1c2c(-c3ccncc3)csc2cnn1CCc1ccc2cc(Cl)ccc2n1 [compound 318, hydrochloride]"
28,> 7.00,"O=c1c2c(C#Cc3cccnc3)csc2cnn1CCc1ccc2ccccc2n1 [compound 319, hydrochloride]"
